In ChEMBL document CHEMBL1141429, “Ecdysteroids from the Antarctic tunicate Synoicum adareanum” (J Nat Prod, 2007) one finds Activity and IC50 data, which are given here for six molecules.

A short description of data set [1]: Cytotoxicity against human CFU-GM cells after 3 days by disk diffusion assay. The data set is classed as cell-based. As to conditions: 72 h. On the technique in general: In agar diffusion tests the substance spreads into inoculated agar from a disc or well.
A further data set deals with CCRF-CEM. The data set can be described thus: Cytotoxicity against human CCRF-CEM cells after 3 days by disk diffusion assay. The data set is classed as functional, cell-based.
Another data set has as its system L1210. Description: Cytotoxicity against […] cells after 3 days by disk diffusion assay. It is filed as functional, cell-based.
A further data set concerns H125M. Description: Cytotoxicity against human H125M cells after 3 days by disk diffusion assay. It is filed as functional, cell-based.
Another data set concerns HCT-116. The data set can be described thus: Cytotoxicity against human HCT116 cells after 3 days by disk diffusion assay. The data set is classed as functional, cell-based. As to conditions: for IC50: HCT-116, 72 h.

What is called IC50 is the concentration that gives 50% inhibition. A low value points to greater potency.

With `C[C@H](CCCC(C)(C)O)[C@H]1CC[C@]2(O)C3=CC(=O)C4=C[C@H](O)[C@H](O)C[C@]4(C)[C@H]3CC[C@]12C` [HYOUSTERONE B], the Activity result was “Non-toxic” in data set [1]; “Not toxic” in the data set on CCRF-CEM; “Not toxic” with L1210; “Not toxic” in the data set with H125M; “Not toxic” in the data set on HCT-116.
For `C[C@H](CCCC(C)(C)O)[C@H]1CC[C@@]2(O)C3=CC(=O)C4=C[C@H](O)[C@H](O)C[C@]4(C)[C@H]3CC[C@]12C` [HYOUSTERONE A], half-maximal inhibition in the data set on HCT-116 (IC50) was put at 10.7 µM.
Same read-out and setting: the figure for `C[C@H](CCC(C)(C)O)[C@H]1CCC(=O)[C@]23CC(=O)C4=C[C@H](O)[C@H](O)C[C@]4(C)[C@H]2CC[C@]13C` [ABEOHYOUSTERONE] is 3 µM; for `C[C@H](CCCC(C)(C)O)[C@H]1CC[C@@]2(O)C3=CC(=O)C4=C[C@H](O)[C@H](O)C[C@]4(C)[C@@]3(O)CC[C@]12C` [HYOUSTERONE C] it is 3.7 µM.
For `C[C@H](CCCC(C)(C)O)[C@H]1CC[C@]2(O)C3=CC(=O)C4=C[C@H](O)[C@H](O)C[C@]4(C)[C@@]3(O)CC[C@]12C` [HYOUSTERONE D], the Activity entry in data set [1] is “Non-toxic”; in the data set on CCRF-CEM, “Not toxic”; in the data set with L1210, “Not toxic”; in the data set with H125M, “Not toxic”; with HCT-116, “Not toxic”.
Take `C[C@H](CCCC(C)(C)O)[C@H]1CC[C@H]2C3=CC(=O)C4=C[C@H](O)[C@H](O)C[C@]4(C)[C@H]3CC[C@]12C` [DIAULUSTEROL B]: the Activity result was “Non-toxic” in data set [1]; “Not toxic” with CCRF-CEM; “Not toxic” with L1210; “Not toxic” in the data set with H125M; “Not toxic” in the data set on HCT-116.
